Results as given in PubChem BioAssay AID732 (Emory University Molecular Libraries Screening Center, 2007).
Several values for one entry are separate records, joined by “and”; a condition that tells them apart may be missing. Equal entries are not always repeated. Activity calls are given as the source filed them. No rule for the calls is given here.

Test system: in vivo angiogenesis, blood vessel count
Experiment: angiogenesis inhibition in living animals, in vivo study, HTS (AID 732);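 also: zebrafish embryos dosed at one day post fertilization; 0% = reference inhibitor and 100% = plate mean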
Details: hits give low values;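 tested at 30 µM in the well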

| Structure (SMILES) | vessel count % control |
| --- | --- |
| CCN1CCCC1CNC(=O)c1cc(S(N)(=O)=O)ccc1OC (stereo unspecified) | 112% (inactive) |
| Clc1ccc(C(c2ccc(Cl)cc2)n2cc[n+](CC(OCc3ccc(Cl)cc3Cl)c3ccc(Cl)cc3Cl)c2)cc1 (stereo unspecified) | 0% (inactive) |
| O=C1C(SCCO)=C(SCCO)C(=O)c2ccccc21 | 0% (inactive) |
| O=C(NCC1CCCCN1)c1cc(OCC(F)(F)F)ccc1OCC(F)(F)F (stereo unspecified) | 127% (inactive) |
| COc1cc(CC(=O)O)ccc1O | 116% (inactive) |
| CCCCC/C=C\C/C=C\C/C=C\C/C=C\CCCC(=O)NCC(=O)O | 83.7% (inactive) |
| N#Cc1c(-c2ccccc2)no[n+]1[O-] | 120% (inactive) |
| CC1=C(C(=O)O)N2C(=O)[C@@H](NC(=O)C(N)C3=CCC=CC3)[C@H]2SC1 (stereo partly specified) | 98.7% (inactive) |
| C[C@]12CC[C@@H]3c4ccc(O)cc4CC[C@H]3[C@@H]1CCC2=O | 111% (inactive) |
| CC(=O)NBr | 130% (inactive) |
| CC1=NS(=O)(=O)c2cc(Cl)ccc2N1 | 116% (inactive) |
| Oc1ccc(C2CNCCc3c2cc(O)c(O)c3Cl)cc1 (stereo unspecified) | 117% (inactive) |
| CN1C2CCC1CC(NC(=O)c1nn(C)c3ccccc13)C2 (stereo unspecified) | 104% (inactive) |
| CC(=O)Nc1nnc(S(N)(=O)=O)s1 | 78.2% (inactive) |
| CN1CCN(C2=Nc3cc(Cl)ccc3Nc3ccccc32)CC1 | 98.7% (inactive) |
| C[N+]1(C)C2CCC1CC(OC(=O)C(CO)c1ccccc1)C2 (stereo unspecified) | 77.4% (inactive) and 108% (inactive) |
| COc1cc2c(CCNC(C)=O)c[nH]c2cc1Cl | 71.1% (inactive) |
| NC(Cn1oc(=O)[nH]c1=O)C(=O)O (stereo unspecified) | 129% (inactive) |
| O=C1C(c2c(O)[nH]c3ccc(S(=O)(=O)O)cc23)=Nc2ccccc21 | 101% (inactive) |
| O=c1ccc2c(OCCCCc3ccccc3)c3ccoc3cc2o1 | 76.3% (inactive) |
| CC(=O)N[C@@H](CS)C(=O)O | 96.5% (inactive) |
| CCN(CC)CCOC(=O)c1cc(Cl)c(N)cc1OC | 114% (inactive) |
| COc1cc(/C=C(\C#N)C(=O)c2ccc(O)c(O)c2)cc(I)c1O | 94.3% (inactive) |
| O=C(O)c1cccnc1Nc1cccc(C(F)(F)F)c1 | 102% (inactive) |
| CC(C)[C@@]1(NC(=O)[C@@H]2C[C@@H]3c4cccc5[nH]cc(c45)C[C@H]3N(C)C2)O[C@@]2(O)[C@@H]3CCCN3C(=O)[C@H](Cc3ccccc3)N2C1=O | 118% (inactive) |
| O=C(O)C1=CC(=C(c2ccc(O)c(C(=O)O)c2)c2ccc(O)c(C(=O)O)c2)C=CC1=O | 109% (inactive) |
